The record followed here is paper PMC10739250 (ACS Bio & Med Chem Au, 2023).

In brackets after ≈: the same amount, converted by molar mass. Bounds are passed on as bounds.

A word on the half-life: it is how long it takes for the measured level to halve. A high value points to slow decline. By EC50 is commonly meant the concentration needed to bring the measured effect to its halfway point. As a reminder, the thermodynamic solubility is the concentration in solution at equilibrium with solid. As usually defined, the logD is the decadic logarithm of the distribution of all forms, ionised or not, between an organic phase and buffer at a given pH.

The nature of data set [1]: in vitro. The note with it: human, hepatocytes.
The nature of data set [2]: in vitro. The note with it: human, microsomes.
Data set [3] has as its system SARS-CoV-2/Canada/VIDO 01/2020. Format: cell-based. The following applies: read-out: EC50 in the presence of the efflux inhibitor CP-100356.
The conditions of data set [4]: human, pH 7.4.
Data set [5] can be described thus: physchem. The following applies: thermodynamic from solid.
Data set [6] is described as follows: physchem.
Data set [7] is described as follows: in vitro. The note with it: hamster, hepatocytes.
For data set [8] the following is noted: rat hepatocytes, 0.5 ×10^6 cells/mL.

As for `CC(C)(C)[C@H](NC(=O)C(F)(F)F)C(=O)N1C[C@H]2[C@@H]([C@H]1C(=O)N[C@H](C#N)C[C@@H]1CCNC1=O)C2(C)C` [Compound 1, nirmatrelvir], the half-life in data set [1] is more than 434 min. In addition, the half-life in data set [2] worked out at 40.2 min. The EC50 in data set [3] turned out to be 200 nM. In addition, in data set [4], the “amount of metabolite Major” value amounted to 100; the “amount of metabolite Minor A” value is 5.1 ± 0.8; the “amount of metabolite Minor B” value is 2.3 ± 0.4; the “increase of minor metabolites A and B on deuteration” value is given as 210%. For the same compound, in data set [4], the “minor sites (Minor A and Minor B), share of total metabolites” value is given as “less than 10%”. In data set [5], this compound displayed a solubility (thermodynamic) of 4.79 mM (≈ 2390 µg/mL). For the same compound, the logD in data set [6] stood at 1.86. This compound also displayed a half-life in data set [7] of 57.4 min. For the same compound, the “hepatocyte stability, t1/2, rat” value in data set [8] came to 244.7 min.
